“Also recorded” adds a separate entry of the source.
Columns and labels:
[1] = biological target: T1, H-Ras(M72C) GppNHp binding to Raf-1-RBD (Homo sapiens, UniProt P01112, M72C); assay: Raf-1-RBD pull-down of labeled H-Ras(M72C) GppNHp; conditions: H-Ras(M72C) GppNHp pre-labeled with compound; various concentrations of H-Ras
T1 construct: and H-Ras (residues 1-166) were transformed into Escherichia coli; His6; made in house; host or cells: Escherichia coli BL21(DE3)
Experimental: (§1) FIGS. 29A-29D. […] FIG. 29D: Reconstruction of Ras cycle is achieved by inducing nucleotide exchange of 100 nM Ras by various concentrations of SOS^cat for either 1 or 2 hours and subsequent pull-down by Raf-1-RBD.
(§2) FIGS. 33A-33D. […] In FIG. 33B) through FIG. 33D), normalized pull-down signals are shown below the blot. S. E. M for each signal, number of replicates, and […] for each comparative Standard T-Test are summarized herein (see Tables 33B, 33C, and 33D). […] Comparative statistics were done for normalized pull-down signals between protein constructs of the same condition (i.e. in FIG. 33B) and FIG. 33C), column 1 for unlabeled and 1 for labeled protein, 2 for unlabeled and 2 for labeled, and so on were statistically compared, and in FIG. 33D) only the +SOS^cat and +GppNHp lanes were compared across protein constructs). FIG. 33A) Cartoon representation of pull down protocol. […] Reported values are quantified pull-down signals normalized to input. FIG. 33B) Cartoon representation of pull down protocol. […] FIG. 33C) Cartoon representation of pull down protocol. […] FIG. 33D) Cartoon representation of pull down protocol. Ras activation is achieved by catalyzing nucleotide exchange by SOS^cat and indirectly reading out activated Ras by subsequent pull down by Raf-1-RBD.

[2] = biological target: T2, H-Ras(M72C) GDP binding to SOScat (Homo sapiens, UniProt P01112, M72C); assay: SOScat pull-down of H-Ras(M72C) GDP; conditions: SOScat pull-down of H-Ras(M72C) GDP at various concentrations of H-Ras
T2 construct: and H-Ras (residues 1-166) were transformed into Escherichia coli; His6; made in house; host or cells: Escherichia coli BL21(DE3)

[3] = biological target: T2, H-Ras(M72C) GDP binding to SOScat; assay: Ras GDP in vitro pull down by His6 tagged SOScat
Experimental: Ras GDP In Vitro Pull Down Assay by His6 Tagged SOS^CAT
This experiment was created based on a procedure published in Hall et al., 2001. For each SOS^CAT in vitro pull down the total volume was 500 μL. Each reaction had the following final composition: Either 20, 80, 200, 400, or 800 nM Ras GDP (from 0.2 mg/mL Ras stock), 75 nM BSA (2.5 μg, 5 μL of 0.5 mg/mL BSA stock), 200 nM of His6-SOS^CAT (6 μg, 3 μL of diluted 0.2 mg/mL stock of His6-SOS^CAT), and SOS^CAT Pull Down Buffer to volume (20 mM Tris (pH 7.6), 50 mM NaCl, 5 mM EDTA, 1% Triton X-100, 20 mM imidazole). Samples were then mixed by gentle rotation at 4° C. for 30 min. While equilibrating, add 50 μL Ni-NTA slurry (Qiagen) to a cellulose acetate spin cup and spin at 5,000 rpm on a tabletop centrifuge for 30 seconds. Wash the beads with 400 μL of SOS^CAT Pull Down Buffer to wash away bead storage buffer. Before adding each pull down solution, take 10 μL and save as a loading control sample. To each spin cup filled with washed Ni-NTA beads, add the remaining equilibrated pull down solution, seal the spin cup with parafilm and let rotate at 4° C. for 30 more minutes. After mixing, centrifuge the sample for 30 seconds at 5,000 rpm. Toss flow through. Wash the beads×5 with 400 μL of SOS^CAT Pull Down Buffer. After last wash, centrifuge one last time to remove any excess buffer stuck to the beads. To each cup, add 50 μL of 5×SDS loading buffer and mix by vortexing. Let the buffer sit on the beads for 5 minutes and then elute into a fresh tube by centrifuging at 5000 rpm for 1.5 minutes. Load 10 μL of each loading control sample and 25 μL of each eluted pull down onto a SDS-PAGE gel and transfer to a nitrocellulose blot for Western Blot analysis. Block with 5% BSA TBS buffer and then blot with pan Ras primary antibody at a 1:500 dilution in 5% BSA in TBST (Cell Signaling #3965). Blots were read out using LICOR compatible secondary antibodies and quantified. The largest input signal was normalized to one for each protein construct and each pull-down signal (i.e. 20 nM, 80 nM, 200 nM, 400 nM, and 800 nM respectively) was reported relative to that maximum signal. Thus, normalized pull-down signals represent the proportion of Ras pulled down relative to the maximum blot signal detected for that particular protein construct.

H-Ras(M72C) GppNHp = H-Ras(M72C) GppNHp (Homo sapiens, UniProt P01112, M72C); assay: EDTA catalyzed exchange and subsequent pull-down by Raf-1-RBD (nucleotide preference); assay type: biochemical; set-up: and H-Ras (residues 1-166) were transformed into Escherichia coli; His6; made in house; host or cells: Escherichia coli BL21(DE3); conditions: EDTA catalyzed exchange, then pull-down by Raf-1-RBD
Experimental: as §1, §2

1-169 K-Ras(M72C) GDP = biological target: T3, 1-169 K-Ras(M72C) GDP (Homo sapiens, UniProt P01116, M72C); assay: Disulfide tethering screen, percent modification by intact protein mass spectrometry; assay type: binding; conditions: screening βME 1 mM
T3 construct: Untagged recombinant 1-169 K-Ras(M72C) GDP; His6 (cleaved yes); made in house; host or cells: Escherichia coli BL21(DE3)
From the text: In some embodiments, a library of disulfide compounds may be screened against a cysteine-containing protein in the presence of a reducing agent such as β-mercaptoethanol (BME). Compounds with complementary binding contacts with a region of the protein near the cysteine may shift the disulfide exchange equilibrium away from BME modification of the cysteine thiol and enhance the ratio of the hit ligand bound to the cysteine. The resulting mass change of the protein can be readily detected by mass spectrometry, and the percentage of modified protein can be used as a measure of potency. Compounds which exchange with the cysteine without conferring affinity should exchange with reducing agent equally well and will not shift the equilibrium toward protein modification. The potency of various compounds at a given concentration of BME may be compared by calculating the dose-response 50 (DR50), which is the concentration of compound at which the protein becomes 50% modified.
A tethering library of 960 disulfides were screened against 1-169 K-Ras(M72C) GDP using intact protein mass spectrometry to monitor percent modification (See Methods, and FIG. 37). […] To better prioritize tethering fragments, a βME50 value (the concentration of βME needed to reduce disulfide fragment modification to 50%) was determined for each compound. […]

COc1ccc(-n2ncc(C(=O)NCCCSSCCN(C)C)c2C(F)(F)F)cc1 [Compound 2C07, N-(3-((2-(dimethylamino)ethyl)disulfanyl)propyl)-1-(4-methoxyphenyl)-5-(trifluoromethyl)-1H-pyrazole-4-carboxamide]
Raf-1-RBD binding [1]: does not inhibit Raf binding; also recorded: permits Raf-1-RBD binding
SOS binding [2]: inhibits SOS binding
Normalized Averaged Pull Down (SOS PD Assay) ([3]; H-Ras(M72C) 2C07, [Ras] printed 200 nM, input normalized 1.00): 0.09
Normalized Averaged Pull Down (SOS PD Assay) ([3]; H-Ras(M72C) 2C07, [Ras] 20 nM): 0.002
Normalized Averaged Pull Down (SOS PD Assay) ([3]; H-Ras(M72C) 2C07, [Ras] 80 nM): 0.01
Normalized Averaged Pull Down (SOS PD Assay) ([3]; H-Ras(M72C) 2C07, [Ras] 200 nM): 0.03
Normalized Averaged Pull Down (SOS PD Assay) ([3]; H-Ras(M72C) 2C07, [Ras] 400 nM): 0.06
nucleotide preference (H-Ras(M72C) GppNHp): alters intrinsic Ras affinity for nucleotide towards GDP; also recorded: alters Ras nucleotide preference
percent modification (1-169 K-Ras(M72C) GDP): 69.7%

Source: patent US11136297B2, “Compositions and methods for treating cancer” (THE REGENTS OF THE UNIVERSITY OF CALIFORNIA, priority 2016, dated 2021)
